Compound	melting point [°C]
O[C@H]1CC[C@H](Nc2nccc(-c3noc4ccc(F)cc34)n2)CC1 [Compound 83, 4-[4-(5-fluorobenzo[d]-isoxazol-3-yl)-pyrimidin-2-ylamino]-cyclohexanol]	172 to 173.9
OCCOc1ccc2cnn(-c3ccnc(N[C@H]4CC[C@H](O)CC4)n3)c2c1 [Compound 89, 4-{4-[6-(2-hydroxy-ethoxy)-indazol-1-yl]-pyrimidin-2-ylamino}-cyclohexanol]	216.5 to 218.5
OCCOc1cccc2c1cnn2-c1ccnc(N[C@H]2CC[C@H](O)CC2)n1 [Compound 90, 4-{4-[4-(2-hydroxy-ethoxy)-indazol-1-yl]-pyrimidin-2-ylamino}-cyclohexanol]	208.2 to 210.2
COc1cccc2c1cnn2-c1ccnc(NC2CCC(NC(C)=O)CC2)n1 (stereo not drawn) [Compound 91, N-{4-[4-(4-methoxy-indazol-1-yl]-pyrimidin-2-ylamino}-cyclohexane}-acetamide]	256.9 to 259.9
CN(c1cccc2c1ccn2-c1ccnc(N[C@H]2CC[C@H](O)CC2)n1)S(C)(=O)=O [Compound 92, N-{1-[2-(4-hydroxy-cyclohexylamino)-pyrimidin-4-yl]-1H-indol-4-yl}-N-methyl-methanesulfonamide]	235.8 to 236.2
OCC(O)COc1ccc2cnn(-c3ccnc(N[C@H]4CC[C@H](O)CC4)n3)c2c1 (stereo partly drawn) [Compound 93, 3-{1-[2-(4-hydroxy-cyclohexylamino)-pyrimidin-4-yl]-1H-indazol-6-yloxy}-propane-1,2-diol]	223.8 to 224.7
O[C@H]1CC[C@H](Nc2nccc(-n3ncc4c(OCC5CC5)cccc43)n2)CC1 [Compound 94, 4-[4-(4-cyclopropyl-methoxy-indazol-1-yl)-pyrimidin-2-ylamino]-cyclohexanol]	> 300
O=C(COc1cccc2c1cnn2-c1ccnc(N[C@H]2CC[C@H](O)CC2)n1)N[C@H]1CC[C@H](O)CC1 [Compound 95, N-(4-hydroxy-cyclo-hexyl)-2-{1-[2-(4-hydroxy-cyclohexyl-amino)-pyrimidin-4-yl]-1H-indazol-4-yloxy}-acetamide]	220 to 222.3
CS(=O)(=O)Nc1cccc2c1ccn2-c1ccnc(N[C@H]2CC[C@H](O)CC2)n1 [Compound 97, N-{1-[2-(4-hydroxy-cyclohexylamino)-pyrimidin-4-yl]-1H-indol-4-yl}-N-methane-sulfonamide]	240.2 to 240.8
CCc1cccc2c1cnn2-c1ccnc(N[C@H]2CC[C@H](O)CC2)n1 [Compound 99, 4-[4-(4-ethylindazol-1-yl)-pyrimidin-2-yl-amino]-cyclohexanol]	170.2 to 174.4
CNC(=O)OCc1cccc2c1ccn2-c1ccnc(N[C@H]2CC[C@H](O)CC2)n1 [Compound 100, Methyl-carbamic acid 1-[2-(4-hydroxy-cyclo-hexylamino)-pyrimidin-4-yl]-1H-indol-4-ylmethyl ester]	132 to 133
N#CCc1cccc2c1ccn2-c1ccnc(N[C@H]2CC[C@H](O)CC2)n1 [Compound 101, {1-[2-(4-hydroxy-cyclo-hexylamino)-pyrimidin-4-yl]-1H-indol-4-yl}-acetonitrile]	207 to 209
COCc1cccc2c1ccn2-c1ccnc(N[C@H]2CC[C@H](O)CC2)n1 [Compound 102, 4-[4-(4-methoxymethyl-indol-1-yl)-pyrimidin-2-ylamino]-cyclohexanol]	134.8 to 137.3
O[C@H]1CC[C@H](Nc2nccc(-n3ncc4c(OCc5ccccn5)cccc43)n2)CC1 [Compound 103, 4-{4-[4-(pyridine-2-yl-methoxy)-indazol-1-yl]-pyrimidin-2-ylamino}-cyclohexanol]	202.5 to 203.6
COc1cccc2c1cnn2-c1ccnc(N[C@H]2CC[C@H](C(=O)N(C)C)CC2)n1 [Compound 105, 4-[4-(4-methoxyindazol-1-yl)-pyrimidin-2-ylamino]-cyclo-hexanecarboxylic acid dimethylamide]	278.8 to 280
O=C1c2ccccc2C(=O)N1Cc1cccc2c1ccn2-c1ccnc(N[C@H]2CC[C@H](O)CC2)n1 [Compound 106, 2-{1-[2-(4-hydroxy-cyclohexylamino)-pyrimidin-4-yl]-1H-indol-4-ylmethyl}-isoindole-1,3-dione]	251.7 to 253
CC(C)(O)c1cccc2c1ccn2-c1ccnc(N[C@H]2CC[C@H](C(=O)NCCS(C)(=O)=O)CC2)n1 [Compound 107, 4-{4-[4-(1-hydroxy-1-methylethyl)-indol-1-yl]-pyrimidin-2-yl-amino}-cyclohexane-carboxylic acid (2-methanesulfonyl-ethyl)-amide]	208 to 210
CCS(=O)(=O)Cc1cccc2c1ccn2-c1ccnc(N[C@H]2CC[C@H](O)CC2)n1 [Compound 108, 4-[4-(4-ethanesulfonyl-methyl-indol-1-yl)-pyrimidin-2-ylamino]-cyclohexanol]	193.3 to 194.6

Compound	melting point [°C]
CC(=O)N[C@H]1CC[C@H](Nc2nccc(-n3ccc4c(C(C)(C)O)cccc43)n2)CC1 [Compound 109, N-(4-{4-[4-(1-hydroxy-1-methylethyl)-indol-1-yl]-pyrimidin-2-yl-amino}-cyclohexyl)-acetamide]	172 to 173.6
CS(=O)(=O)N[C@H]1CC[C@H](Nc2nccc(-n3ccc4c(CC#N)cccc43)n2)CC1 [Compound 110, N-{4-[4-(4-cyano-methyl-indol-1-yl)-pyrimidin-2ylamino]-cyclohexyl}-methane-sulfonamide]	235 to 235.5
CNC(=O)COc1cccc2c1cnn2-c1ccnc(N[C@H]2CC[C@H](O)CC2)n1 [Compound 112, 2-{1-[2-(4-hydroxy-cyclohexylamino)-pyrimidin-4-yl]-1H-indazol-4-yloxy}-N-methyl-acetamide]	226 to 227
N#CCc1cccc2c1ccn2-c1ccnc(N[C@H]2CC[C@H](C(=O)N3CCCC3)CC2)n1 [Compound 114, (1-{2-[4-(pyrrolidino-1-carbonyl)-cyclohexyl-amino]-pyrimidin-4-yl}-1H-indol-4-yl)-acetonitrile]	136 to 137.5
CS(=O)(=O)N[C@H]1CC[C@H](Nc2ncc(F)c(-n3ccc4ccccc43)n2)CC1 [Compound 115, N-[4-(5-fluoro-4-indol-1-yl-pyrimidin-2-ylamino)-cyclohexyl]-methanesulfonamide]	270 to 270.5
CC(C)(O)c1cccc2c1ccn2-c1ccnc(N[C@H]2CC[C@H](C(=O)N3CCCC3)CC2)n1 [Compound 116, (4-{4-[4-(1-hydroxy-1-methylethyl)-indol-1-yl]-pyrimidin-2-yl-amino}-cyclohexyl)-pyrrolidin-1-yl-methanone]	207.8 to 209.8
CC(C)(O)c1cccc2c1ccn2-c1ccnc(N[C@H]2CC[C@H](NS(C)(=O)=O)CC2)n1 [Compound 117, N-(4-{4-[4-(1-hydroxy-1-methylethyl)-indol-1-yl]-pyrimidin-2-yl-amino}-cyclohexyl)-methanesulfonamide]	247 to 249.6
CS(=O)(=O)N[C@H]1CC[C@H](Nc2ncc(Cl)c(-n3ccc4ccccc43)n2)CC1 [Compound 118, N-[4-(5-chloro-4-indol-1-ylpyrimidin-2-yl-amino)-cyclohexyl]-methanesulfonamide]	203.8 to 204.9
CC(=O)N[C@H]1CC[C@H](Nc2ncc(Cl)c(-n3ccc4ccccc43)n2)CC1 [Compound 119, N-[4-(5-chloro-4-indol-1-ylpyrimidin-2-yl-amino)-cyclohexyl]-acetamide]	263.2 to 263.8
O=C([C@H]1CC[C@H](Nc2ncc(Cl)c(-n3ccc4ccccc43)n2)CC1)N1CCCC1 [Compound 120, [4-(5-chloro-4-indol-1-ylpyrimidin-2-ylamino)-cyclohexyl]-pyrrolidin-1-ylmethanone]	182 to 182.5
CC(C)(O)[C@H]1CC[C@H](Nc2nccc(-n3ccc4c(CC#N)cccc43)n2)CC1 [Compound 123, (1-{2-[4-(1-hydroxy-1-methylethyl)-cyclo-hexylamino]-pyrimidin-4-yl}-1H-indol-4-yl)-acetonitrile]	188 to 191.7
CNC(=O)COc1cccc2c1cnn2-c1ccnc(N[C@H]2CC[C@H](C(=O)N(C)C)CC2)n1 [Compound 124, 4-[4-(4-methylcarba-moylmethoxy-indazol-1-yl)-pyrimidin-2-yl-amino]-cyclohexane-carboxylic acid dimethylamide]	183 to 185
COc1cccc2c1cnn2-c1ccnc(N[C@H]2CC[C@H](C(=O)N3CCCC3)CC2)n1 [Compound 125, {4-[4-(4-methoxy-indazol-1-yl)-pyrimidin-2-ylamino]-cyclohexyl}-pyrrolidin-1-ylmethanone]	246.5 to 247
COc1cccc2c1cnn2-c1ccnc(N[C@H]2CC[C@H](NS(C)(=O)=O)CC2)n1 [Compound 126, N-{4-[4-(4-methoxy-indazol-1-yl)-pyrimidin-2-ylamino]-cyclohexyl}-methanesulfonamide]	291.5 to 292.5
CC(=O)N[C@H]1CC[C@H](Nc2nccc(-n3ncc4c(OCCO)cccc43)n2)CC1 [Compound 130, N-(4-{4-[4-(2-hydroxy-ethoxy)-indazol-1-yl]-pyrimidin-2-ylamino}-cyclohexyl)-acetamide]	242.7 to 245.5
CS(=O)(=O)N[C@H]1CC[C@H](Nc2nccc(-n3ccc4c(F)cccc43)n2)CC1 [Compound 134, N-{4-[4-(4-fluoro-indol-1-yl)-pyrimidin-2-ylamino]-cyclohexyl}-methane sulfonamide]	248.7 to 249.4
CC(O)c1cccc2c1ccn2-c1ccnc(N[C@H]2CC[C@H](NS(C)(=O)=O)CC2)n1 (stereo partly drawn) [Compound 135, N-(4-{4-[4-(1-hydroxy-ethyl)-indol-1-yl]-pyrimidin-2-ylamino}-cyclohexyl)-methane-sulfonamide]	244.5 to 245.3
CN(C)S(=O)(=O)N[C@H]1CC[C@H](Nc2nccc(-n3ncc4ccccc43)n2)CC1 [Compound 136, Dimethyl sulfonamide [4-(4-indazol-1-yl)-pyrimidin-2-ylamino]-cyclohexyl amine]	238.5 to 239.7

Reference: patent US8399462B2, “JNK modulators” (Roche Palo Alto LLC, priority 2006, dated 2013)
